Measured values from ChEMBL document CHEMBL1137199, “Estrogen receptor ligands. Part 8: Dihydrobenzoxathiin SERAMs with heteroatom-substituted side chains” (Bioorg Med Chem Lett, 2004).

Assays:
MCF7 = test: cells; details: Homo sapiens
Estrogen receptor = target: T1, Estrogen receptor (Homo sapiens, UniProt P03372)
T1 sequence (P03372 whole entry): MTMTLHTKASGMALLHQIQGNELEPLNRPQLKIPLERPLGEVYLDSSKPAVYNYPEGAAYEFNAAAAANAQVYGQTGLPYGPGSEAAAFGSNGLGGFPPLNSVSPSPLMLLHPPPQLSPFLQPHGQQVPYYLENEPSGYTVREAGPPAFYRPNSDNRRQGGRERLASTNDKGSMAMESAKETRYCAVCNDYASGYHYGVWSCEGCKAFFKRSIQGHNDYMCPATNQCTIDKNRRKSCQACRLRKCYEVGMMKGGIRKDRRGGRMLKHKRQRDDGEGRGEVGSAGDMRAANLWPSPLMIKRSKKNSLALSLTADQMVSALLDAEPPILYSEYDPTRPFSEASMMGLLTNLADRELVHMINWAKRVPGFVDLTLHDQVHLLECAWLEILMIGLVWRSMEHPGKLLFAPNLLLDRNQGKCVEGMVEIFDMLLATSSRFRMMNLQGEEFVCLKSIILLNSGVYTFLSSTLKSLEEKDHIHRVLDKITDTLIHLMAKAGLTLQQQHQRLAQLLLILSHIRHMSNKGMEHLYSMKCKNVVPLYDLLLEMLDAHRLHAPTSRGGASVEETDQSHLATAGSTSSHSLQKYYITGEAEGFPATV

Estrogen receptor beta = Estrogen receptor beta (Homo sapiens, UniProt Q92731)
Estrogen receptor beta, sequence (Q92731 whole entry): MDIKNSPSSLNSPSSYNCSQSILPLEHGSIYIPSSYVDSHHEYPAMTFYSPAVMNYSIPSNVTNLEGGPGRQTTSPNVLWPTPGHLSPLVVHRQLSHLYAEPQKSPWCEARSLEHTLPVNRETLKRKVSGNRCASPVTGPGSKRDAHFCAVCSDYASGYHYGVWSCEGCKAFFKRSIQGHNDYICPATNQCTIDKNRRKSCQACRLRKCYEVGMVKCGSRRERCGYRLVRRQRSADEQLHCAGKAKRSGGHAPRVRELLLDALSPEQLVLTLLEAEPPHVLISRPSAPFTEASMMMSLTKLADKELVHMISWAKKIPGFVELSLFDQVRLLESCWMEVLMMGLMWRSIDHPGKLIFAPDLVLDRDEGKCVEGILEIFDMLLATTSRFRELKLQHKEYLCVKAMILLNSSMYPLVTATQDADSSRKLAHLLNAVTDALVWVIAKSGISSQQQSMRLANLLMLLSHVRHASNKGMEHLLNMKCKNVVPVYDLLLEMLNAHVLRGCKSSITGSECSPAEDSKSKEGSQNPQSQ

SMILES | IC50 (MCF7) | IC50 (Estrogen receptor) | IC50 (Estrogen receptor beta)
OCCC1CCN(CCOc2ccc([C@@H]3Oc4ccc(O)cc4S[C@@H]3c3ccc(O)cc3)cc2)CC1 | 42.5 nM | 7.3 nM | 1110 nM
OC[C@@H]1CCCN1CCOc1ccc([C@@H]2Oc3ccc(O)cc3S[C@@H]2c2ccc(O)cc2)cc1 | 1.9 nM | 3.9 nM | 81 nM
OCC1CCN(CCOc2ccc([C@@H]3Oc4ccc(O)cc4S[C@@H]3c3ccc(O)cc3)cc2)CC1 | 11.3 nM | 2.2 nM | 436 nM
Oc1ccc([C@H]2Sc3cc(O)ccc3O[C@H]2c2ccc(OCCN3CCC(F)(F)CC3)cc2)cc1 | 42 nM | 16 nM | 275 nM
O=S1(=O)CCN(CCOc2ccc([C@@H]3Oc4ccc(O)cc4S[C@@H]3c3ccc(O)cc3)cc2)CC1 | 26.3 nM | 2 nM | 247 nM
Oc1ccc([C@H]2Sc3cc(O)ccc3O[C@H]2c2ccc(OCCN3CCSCC3)cc2)cc1 | 15.6 nM | 1.5 nM | 72 nM
NC(=O)C1CCN(CCOc2ccc([C@@H]3Oc4ccc(O)cc4S[C@@H]3c3ccc(O)cc3)cc2)CC1 | 21 nM | 2.2 nM | 366 nM
Oc1ccc([C@H]2Sc3cc(O)ccc3O[C@H]2c2ccc(OCCN3CCC4(CC3)OCCO4)cc2)cc1 | 42.3 nM | 2 nM | 267 nM
Oc1ccc([C@H]2Sc3cc(O)ccc3O[C@H]2c2ccc(OCCN3CCC(F)CC3)cc2)cc1 |  | 2.5 nM | 116 nM

Second part, the molecule after the results:

IC50 (MCF7) | IC50 (Estrogen receptor) | IC50 (Estrogen receptor beta) | SMILES
7.5 nM | 1.8 nM | 331 nM | Oc1ccc([C@H]2Sc3cc(O)ccc3O[C@H]2c2ccc(OCCN3CCC(O)CC3)cc2)cc1
3.8 nM | 0.5 nM | 59 nM | Oc1ccc([C@H]2Sc3cc(O)ccc3O[C@H]2c2ccc(OCCN3CC[C@@H](F)C3)cc2)cc1
3.2 nM | 2 nM | 134 nM | OC[C@H]1CCCN1CCOc1ccc([C@@H]2Oc3ccc(O)cc3S[C@@H]2c2ccc(O)cc2)cc1
0.6 nM | 1.7 nM | 81 nM | Oc1ccc([C@H]2Sc3cc(O)ccc3O[C@H]2c2ccc(OCCN3CC[C@@H](O)C3)cc2)cc1
